From patent publication US20230183292A1, “IMMUNOMODULATORS” (priority 2020, published 2023)
Positions of bridges follow the written chain, without caps; N, C: chain ends. Non-standard residues stand in square brackets, D forms with d. Residues, ends and D or L forms follow the SMILES beside them. *: point of attachment. Chenodeoxycholyl = C[C@H](CCC(=O)*)[C@H]1CC[C@H]2[C@@H]3[C@H](O)C[C@@H]4C[C@H](O)CC[C@]4(C)[C@H]3CC[C@]12C; Deoxycholoyl = C[C@H](CCC(=O)*)[C@H]1CC[C@H]2[C@@H]3CC[C@@H]4C[C@H](O)CC[C@]4(C)[C@H]3C[C@H](O)[C@]12C; Lithocholoyl = C[C@H](CCC(=O)*)[C@H]1CC[C@H]2[C@@H]3CC[C@@H]4C[C@H](O)CC[C@]4(C)[C@H]3CC[C@]12C; X36 = C[C@H](CCC(=O)*)[C@H]1CC[C@H]2[C@@H]3CC[C@@H]4C[C@H](O)CC[C@]4(C)[C@H]3CC(O)[C@]12C; Trp(1-CH2CO2Me) = COC(=O)Cn1cc(C[C@H](N)C(=O)O)c2ccccc21; Trp(1-CH2COOH) = N[C@@H](Cc1cn(CC(=O)O)c2ccccc12)C(=O)O; Hyp = O=C(O)[C@@H]1C[C@@H](O)CN1; NMeNle = CCCC[C@H](NC)C(=O)O; NMeA = CN[C@@H](C)C(=O)O; Dab = NCC[C@H](N)C(=O)O; Dap = NC[C@H](N)C(=O)O

molecular target: T1, PD-1/PD-L1 (Homo sapiens, UniProt Q9NZQ7); assay: PD-1/PD-L1 Homogenous Time-Resolved Fluorescence (HTRF) binding assay; details: PD-L1-His 10 nM, PD-1-Ig 20 nM; read-out: HTRF IC50
T1 construct: TVMV protease site (C); made in house; host or cells: HEK293T cells
T1 sequence (Q9NZQ7 18-239): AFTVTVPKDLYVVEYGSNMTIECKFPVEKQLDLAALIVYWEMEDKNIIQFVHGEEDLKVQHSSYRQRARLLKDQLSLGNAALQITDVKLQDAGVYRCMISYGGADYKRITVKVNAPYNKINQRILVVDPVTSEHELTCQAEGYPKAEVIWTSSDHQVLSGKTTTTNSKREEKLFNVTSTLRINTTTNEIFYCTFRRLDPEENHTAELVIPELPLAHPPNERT
Description: The ability of the compounds of formula (I) to bind to PD-L1 was investigated using a PD-1/PD-L1 Homogenous Time-Resolved Fluorescence (HTRF) binding assay.
The interaction of PD-1 and PD-L1 can be assessed using soluble, purified preparations of the extracellular domains of the two proteins. The PD-1 and PD-L1 protein extracellular domains were expressed as fusion proteins with detection tags, for PD-1, the tag was the Fc portion of Immunoglobulin (PD-1-Ig) and for PD-L1 it was the 6 histidine motif (PD-L1-His). All binding studies were performed in an HTRF assay buffer consisting of dPBS supplemented with 0.1% […] bovine serum albumin and 0.05% (v/v) Tween-20. For the h/PD-L1-His binding assay, inhibitors were pre-incubated with PD-L1-His (10 nM final) for 15 m in 4 μl of assay buffer, followed by addition of PD-1-Ig (20 nM final) in 1 μl of assay buffer and further incubation for 15 m. HTRF detection was achieved using europium crypate-labeled anti-Ig (1 nM final) and allophycocyanin (APC) labeled anti-His (20 nM final). Antibodies were diluted in HTRF detection buffer and 5 μl was dispensed on top of the binding reaction. The reaction mixture was allowed to equilibrate for 30 minutes and the resulting signal (665 nm/620 nm ratio) was obtained using an EnVision fluorometer. Additional binding assays were established between the human proteins PD-1-Ig/PD-L2-His (20 & 5 nM, respectively) and CD80-His/PD-L1-Ig (100 & 10 nM, respectively).
Recombinant Proteins: Human PD-1 (25-167) with a C-terminal human Fc domain of immunoglobulin G (Ig) epitope tag [hPD-1 (25-167)-3S-IG] and human PD-L1 (18-239) with a C-terminal His epitope tag [hPD-L1(18-239)-TVMV-His] were expressed in HEK293T cells and purified sequentially by ProteinA affinity chromatography and size exclusion chromatography. Human PD-L2-His and CD80-His was obtained through commercial sources.
Table 1 lists the IC50 values for representative examples of this disclosure measured in the PD-1/PD-L1 Homogenous Time-Resolved Fluorescence (HTRF) binding assay.

Q: Which IC50 does the source give for `CCCC[C@H]1C(=O)N(C)[C@@H](CCCC)C(=O)N[C@@H](CC(C)C)C(=O)N[C@H](C(=O)NCC(N)=O)CSCC(=O)N[C@@H](Cc2ccc(O)cc2)C(=O)N(C)[C@@H](C)C(=O)N[C@@H](CC(N)=O)C(=O)N2CCC[C@H]2C(=O)N[C@@H](CNC(=O)CC[C@@H](C)[C@H]2CC[C@H]3[C@@H]4CC[C@@H]5C[C@H](O)CC[C@]5(C)[C@H]4C[C@H](O)[C@]23C)C(=O)N[C@@H](CC(C)C)C(=O)N2C[C@H](O)C[C@H]2C(=O)N[C@@H](Cc2c[nH]c3ccccc23)C(=O)N[C@@H](CCNC(=O)CC[C@@H](C)[C@H]2CC[C@H]3[C@@H]4[C@H](O)C[C@@H]5C[C@H](O)CC[C@]5(C)[C@H]4CC[C@]23C)C(=O)N[C@@H](Cc2cn(CC(=O)OC)c3ccccc23)C(=O)N1C` [Example 1001] ({CH2CO}-Y[NMeA]NP[Dap](Deoxycholoyl)L[Hyp]W[Dab](Chenodeoxycholyl)[Trp(1-CH2CO2Me)][NMeNle][NMeNle]LCG-NH2; thioether N-14) here?
A: 9.5 nM

Q: `CCCC[C@H]1C(=O)N(C)[C@@H](CCCC)C(=O)N[C@@H](CC(C)C)C(=O)N[C@H](C(=O)NCC(N)=O)CSCC(=O)N[C@@H](Cc2ccc(O)cc2)C(=O)N(C)[C@@H](C)C(=O)N[C@@H](CC(N)=O)C(=O)N2CCC[C@H]2C(=O)N[C@@H](CNC(=O)CC[C@@H](C)[C@H]2CC[C@H]3[C@@H]4CC[C@@H]5C[C@H](O)CC[C@]5(C)[C@H]4C[C@H](O)[C@]23C)C(=O)N[C@@H](CC(C)C)C(=O)N2C[C@H](O)C[C@H]2C(=O)N[C@@H](Cc2c[nH]c3ccccc23)C(=O)N[C@@H](CCNC(=O)CC[C@@H](C)[C@H]2CC[C@H]3[C@@H]4[C@H](O)C[C@@H]5C[C@H](O)CC[C@]5(C)[C@H]4CC[C@]23C)C(=O)N[C@@H](Cc2cn(CC(=O)O)c3ccccc23)C(=O)N1C` [Example 1002] ({CH2CO}-Y[NMeA]NP[Dap](Deoxycholoyl)L[Hyp]W[Dab](Chenodeoxycholyl)[Trp(1-CH2COOH)][NMeNle][NMeNle]LCG-NH2; thioether N-14) was tested. Which IC50 did it give?
A: 11 nM

Q: Which IC50 does the source give for `CCCC[C@H]1C(=O)N(C)[C@@H](CCCC)C(=O)N[C@@H](CC(C)C)C(=O)N[C@H](C(=O)NCC(N)=O)CSCC(=O)N[C@@H](Cc2ccc(O)cc2)C(=O)N(C)[C@@H](C)C(=O)N[C@@H](CC(N)=O)C(=O)N2CCC[C@H]2C(=O)N[C@@H](CNC(=O)CC[C@@H](C)[C@H]2CC[C@H]3[C@@H]4CC[C@@H]5C[C@H](O)CC[C@]5(C)[C@H]4C[C@H](O)[C@]23C)C(=O)N[C@@H](CC(C)C)C(=O)N2C[C@H](O)C[C@H]2C(=O)N[C@@H](Cc2c[nH]c3ccccc23)C(=O)N[C@@H](CCNC(=O)CC[C@@H](C)[C@H]2CC[C@H]3[C@@H]4CC[C@@H]5C[C@H](O)CC[C@]5(C)[C@H]4CC(O)[C@]23C)C(=O)N[C@@H](Cc2cn(CC(=O)OC)c3ccccc23)C(=O)N1C` (stereo partly shown) [Example 1003] ({CH2CO}-Y[NMeA]NP[Dap](Deoxycholoyl)L[Hyp]W[Dab](X36)[Trp(1-CH2CO2Me)][NMeNle][NMeNle]LCG-NH2; thioether N-14) here?
A: > 10000 nM

Q: With `CCCC[C@H]1C(=O)N(C)[C@@H](CCCC)C(=O)N[C@@H](CC(C)C)C(=O)N[C@H](C(=O)NCC(N)=O)CSCC(=O)N[C@@H](Cc2ccc(O)cc2)C(=O)N(C)[C@@H](C)C(=O)N[C@@H](CC(N)=O)C(=O)N2CCC[C@H]2C(=O)N[C@@H](CNC(=O)CC[C@@H](C)[C@H]2CC[C@H]3[C@@H]4CC[C@@H]5C[C@H](O)CC[C@]5(C)[C@H]4CC[C@]23C)C(=O)N[C@@H](CC(C)C)C(=O)N2C[C@H](O)C[C@H]2C(=O)N[C@@H](Cc2c[nH]c3ccccc23)C(=O)N[C@@H](CCNC(=O)CC[C@@H](C)[C@H]2CC[C@H]3[C@@H]4CC[C@@H]5C[C@H](O)CC[C@]5(C)[C@H]4CC[C@]23C)C(=O)N[C@@H](Cc2cn(CC(=O)OC)c3ccccc23)C(=O)N1C` [Example 1004] ({CH2CO}-Y[NMeA]NP[Dap](Lithocholoyl)L[Hyp]W[Dab](Lithocholoyl)[Trp(1-CH2CO2Me)][NMeNle][NMeNle]LCG-NH2; thioether N-14) as the compound, how does the IC50 read?
A: > 10000 nM
